Holding throughout (assay): Greenhouse trial: resistant biotypes, PE application (test method 9)
Common to all, as to type: in vivo
Common to all, as to settings: g of AS/ha: (A) 90, (B) 1200, (C) 90, iodosulfuron 10

Assay [1] has as its system STEME (Stellaria media), sensitive and resistant. On the procedure:
(§1) In the standard design of the test, seeds of various broad-leaved weed and weed grass biotypes (origins) were sown in a 8-13 cm diameter pot filled with natural soil of a standard field soil (loamy silt; non-sterile) and covered with a covering soil layer of about 1 cm. The pots were then cultivated in a greenhouse (12-16 h of light, temperature day 20-22° C., night 15-18° C.) until the time of application. The pots were treated on a laboratory track sprayer with spray liquors comprising the compositions according to the invention, mixtures of the prior art or components used individually. Application of the active compounds or active compound combinations formulated as WG, WP, EC or otherwise was carried out at the appropriate growth stages of the plants. The application rate for the spray application was 100-600 l of water/ha. After the treatment, the plants were returned to the greenhouses.
(§2) About 3 weeks after the application, the soil action or/and foliar action was assessed visually according to a scale of 0-100% in comparison to an untreated comparative group: 0%=no noticeable effect compared to the untreated comparative group; 100%=full effect compared to the untreated comparative group.
(§3) (notes: the term “seeds” also includes vegetative propagation forms such as, for example, rhizome pieces; abbreviations used: h light=hours of illumination, g of AS/ha=gram of active substance per hectare, l/ha=liter per hectare, S=sensitive, R=resistant) • 1. Pre-emergence action against weeds: seeds of various broad-leaved weed and weed grass biotypes (origins) were sown in a 8-13 cm diameter pot filled with natural soil of a standard field soil (loamy silt; non-sterile) and covered with a covering soil layer of about 1 cm. The pots were then cultivated in a greenhouse (12-16 h of light, temperature day 20-22° C., night 15-18° C.) until the time of application. The pots were treated at the BBCH stage 00-10 of the seeds/plants on a laboratory track sprayer with spray liquors comprising the compositions according to the invention, mixtures or components used individually, as WG, WP, EC or other formulations. The application rate for the spray application was 100-600 l of water/ha. After the treatment, the plants were returned to the greenhouses and, when required, treated with fertilizer and watered. • 2. Post-emergence action against weeds: seeds of various broad-leaved weed and weed grass biotypes (origins) were sown in a 8-13 cm diameter pot filled with natural soil of a standard field soil (loamy silt; non-sterile) and covered with a covering soil layer of about 1 cm. The pots were then cultivated in a greenhouse (12-16 h of light, temperature day 20-22° C., night 15-18° C.) until the time of application. The pots were treated at various BBCH stages between 11-25 of the seeds/plants, i.e. generally between two to three weeks after the start of the cultivation, on a laboratory track sprayer with spray liquors comprising the compositions according to the invention, mixtures or components used individually, as WG, WP, EC or other formulations. The application rate for the spray application was 100-600 l of water/ha. After the treatment, the plants were returned to the greenhouses and, when required, treated with fertilizer and watered. • 3. Pre-emergence action against weeds with and without incorporation of active compound: seeds of various broad-leaved weed and weed grass biotypes (origins) were sown in a 8-13 cm diameter pot filled with natural soil of a standard field soil (loamy silt; non-sterile). […]

Assay [2] has as its system MATCH (Matricaria chamomilla), sensitive and resistant. As to the method:
as §1, §2, §3

Assay [3] concerns LOLSS (Lolium species), sensitive and resistant. As to the method: as §1, §2, §3

Molecules are shown by their SMILES.

With `COc1nc(C)nc(NC(=O)NS(=O)(=O)c2cc(I)ccc2C(=O)O)n1` [iodosulfuron], in assay [1] (resistant biotype), the “activity STEME resistant (visual scale 0-100%)” value was 40%. Besides, in assay [1] (sensitive biotype), the “activity STEME sensitive (visual scale 0-100%)” value is 90%. In assay [2] (resistant biotype), the “activity MATCH resistant (visual scale 0-100%)” value was 60%. Besides, the “activity MATCH sensitive (visual scale 0-100%)” value in assay [2] (sensitive biotype) worked out at 100%. Moreover, the “activity LOLSS resistant (visual scale 0-100%)” value in assay [3] (resistant biotype) stood at 50%. In assay [3] (sensitive biotype), the “activity LOLSS sensitive (visual scale 0-100%)” value is recorded as 98%.

For the origin of these results see patent US20110152090A1, “HERBICIDAL COMPOSITIONS COMPRISING FLUFENACET” (Bayer CropScience AG, priority 2009, published 2011).
